# Test results taken from US11235976B2, “Nanocarbon-iron composite system as well as composition, preparation method and use thereof” (Chongqing Lummy Pharmaceutical Co., LTD, priority 2017, dated 2022).
# Assays:
# Test in all cases: Cell experiment, cell survival rate
# Format in all cases: cell-based
# Details in all cases: 48 h
# [1] = test system: A549 lung cancer cells
# Description: (§1) Cells growing in a log phase are collected, the concentration of the cell suspension is adjusted, 100 μL of cell suspension is added to each well and the cells are plated (edge wells are filled with sterile PBS) at a density of 1×10^3-10^4 cells/well. The cells are incubated for 24 hours at 37° C. under the condition of 5% CO2, a nanocarbon-iron solution having a concentration gradient (nanocarbon content: 125, 62.5, 15.63 and 3.91 μg/mL; and ferric ion content: 13.65, 6.83, 1.71 and 0.43 μg/mL) is added, and three sub-wells are set. Then the cells are incubated for 48 hours at 37° C. under the condition of 5% CO2. 10 μL of CCK8 solution is added to each well and then the cells are continuously incubated for 2 hours. The absorbance of each well is measured at OD=450 nm with the microplate reader. In addition, a negative control group, nanocarbon control groups having the same concentration and iron preparation control groups having the same concentration are set.
# as §1, with “and 1” for “100”, “of a 6-well plate” for “and the cells are plated (edge wells are filled with sterile PBS)”, “3×10^4” for “1×10^3-10^4”, “1.71,” for “1.71 and”, “The” for “10 μL of CCK8 solution is added to each well and then the”, “trypsinized and counted.” for “continuously incubated for 2 hours. The absorbance of each well is measured at OD=450 nm with the microplate reader.”
# [2] = test system: SKOV3 ovarian cancer cells
# Description: as §1
# as §1, with “and 1” for “100”, “of a 6-well plate” for “and the cells are plated (edge wells are filled with sterile PBS)”, “3×10^4” for “1×10^3-10^4”, “1.71,” for “1.71 and”, “The” for “10 μL of CCK8 solution is added to each well and then the”, “trypsinized and counted.” for “continuously incubated for 2 hours. The absorbance of each well is measured at OD=450 nm with the microplate reader.”
# [3] = test system: MDA-MB-231 breast cancer cells
# Description: as §1
# as §1, with “and 1” for “100”, “of a 6-well plate” for “and the cells are plated (edge wells are filled with sterile PBS)”, “3×10^4” for “1×10^3-10^4”, “1.71,” for “1.71 and”, “The” for “10 μL of CCK8 solution is added to each well and then the”, “trypsinized and counted.” for “continuously incubated for 2 hours. The absorbance of each well is measured at OD=450 nm with the microplate reader.”
# [4] = test system: HCT116 colon cancer cells
# Description: as §1
# as §1, with “and 1” for “100”, “of a 6-well plate” for “and the cells are plated (edge wells are filled with sterile PBS)”, “3×10^4” for “1×10^3-10^4”, “1.71,” for “1.71 and”, “The” for “10 μL of CCK8 solution is added to each well and then the”, “trypsinized and counted.” for “continuously incubated for 2 hours. The absorbance of each well is measured at OD=450 nm with the microplate reader.”
# [5] = test system: Hela cervical cancer cells
# Description: as §1
# as §1, with “and 1” for “100”, “of a 6-well plate” for “and the cells are plated (edge wells are filled with sterile PBS)”, “3×10^4” for “1×10^3-10^4”, “1.71,” for “1.71 and”, “The” for “10 μL of CCK8 solution is added to each well and then the”, “trypsinized and counted.” for “continuously incubated for 2 hours. The absorbance of each well is measured at OD=450 nm with the microplate reader.”
# [6] = test system: SGC-7901 stomach cancer cells
# Description: as §1
# as §1, with “and 1” for “100”, “of a 6-well plate” for “and the cells are plated (edge wells are filled with sterile PBS)”, “3×10^4” for “1×10^3-10^4”, “1.71,” for “1.71 and”, “The” for “10 μL of CCK8 solution is added to each well and then the”, “trypsinized and counted.” for “continuously incubated for 2 hours. The absorbance of each well is measured at OD=450 nm with the microplate reader.”
# [7] = iron preparation alone 0.43 μg/mL
# [8] = iron preparation alone 1.71 μg/mL
# [9] = iron preparation alone 6.83 μg/mL
# [10] = iron preparation alone 13.65 μg/mL
substance,measurement,setting,value
ammonium ferric citrate,Cell Survival Rate,[1]; [7],97.21%
same,Cell Survival Rate,[1]; [8],99.64%
same,Cell Survival Rate,[1]; [9],95.76%
same,Cell Survival Rate,[1]; [10],94.67%
same,Cell Survival Rate,[2]; [7],95.67%
same,Cell Survival Rate,[2]; [8],99.46%
same,Cell Survival Rate,[2]; [9],94.36%
same,Cell Survival Rate,[2]; [10],100%
same,Cell Survival Rate,[3]; [7],100%
same,Cell Survival Rate,[3]; [8],100%
same,Cell Survival Rate,[3]; [9],97.28%
same,Cell Survival Rate,[3]; [10],95.12%
same,Cell Survival Rate,[4]; [7],97.31%
same,Cell Survival Rate,[4]; [8],98.12%
same,Cell Survival Rate,[4]; [9],94.03%
same,Cell Survival Rate,[4]; [10],95.31%
same,Cell Survival Rate,[5]; [7],100%
same,Cell Survival Rate,[5]; [8],99.34%
same,Cell Survival Rate,[5]; [9],97.46%
same,Cell Survival Rate,[5]; [10],93.67%
same,Cell Survival Rate,[6]; [7],97.85%
same,Cell Survival Rate,[6]; [8],95.31%
same,Cell Survival Rate,[6]; [9],96.41%
